{"source": "patent US8524291B2", "about": "“Anti-obesity product and its method of preparation” (Chongquing Institute of Ecological Materia Medica Co. Ltd., priority 2006, dated 2013)", "test": "40-day study in ob/ob mice on high fat diet: body weight and fat, metabolic parameters, liver indicators", "format": "in vivo, C57 black ob/ob mice", "conditions": "day 43", "procedure": "Forty C57 black ob/ob mice were allocated to five groups of eight for study over 40 days as follows:\nHigh fat diet—no treatment;\nHigh fat diet—100 mg/kg/OD PYN22;\nHigh fat diet—300 mg/kg/OD PYN22; • High fat diet—3 mg/kg/OD Rosiglitazone (positive control).\nMice were weighed twice per week and food intake measured daily throughout the study. Any laxative effects of treatments were visually examined and recorded.\nOral glucose tolerance tests were conducted on Day 7, Day 21 and Day 35.\nEnergy expenditure was measured at Day 14.\nFasting plasma insulin and lipids were measured on Days 7, 21 and 35.\nThree days before sacrifice, 100 ul blood samples were taken from all animals to provide plasma glucose, insulin, free fatty acid, triglycerides, cholesterol and HDL-cholesterol.\nAt sacrifice, body mass and fat mass were calculated; the same parameters were also calculated for liver, heart and white adipose tissues.", "data": [{"smiles": "CN(CCOc1ccc(CC2SC(=O)NC2=O)cc1)c1ccccn1", "note": "(centres unmarked) [Rosiglitazone]", "values": [{"measurement": "actual liver weight (FIG. 11C)", "value": "no effect"}, {"measurement": "relative (% body weight) liver weight (FIG. 11D)", "value": "no effect"}]}]}
